Assay results as given in patent US20260250322A1, “NEW PEPTIDES AS SELECTIVE IL-23 RECEPTOR INHIBITORS” (SANOFI, priority 2023, published 2026).
Numbered stars: 1 amine (or outer) side, 2 acyl side, 3 side chain; on linkers, the order of the positions; unused ones are H or OH. Bridge positions count the residues as written; N and C are the ends. Square brackets hold non-standard residues; d marks the D form. Peptide text beside a SMILES is read from it. Tyr(Me) = Yme = 4-methoxy-L-phenylalanine (O-methyl-tyrosine), COc1ccc(C[C@H](N[*:1])C(=O)[*:2])cc1; 1Nal = N[C@@H](Cc1cccc2ccccc12)C(=O)O; 2Nal = N[C@@H](Cc1ccc2ccccc2c1)C(=O)O; AEF = NCCOc1ccc(C[C@H](N)C(=O)O)cc1; Orn = NCCC[C@H](N)C(=O)O; Thp = NC1(C(=O)O)CCOCC1; Aib = CC(C)(N)C(=O)O

T1: IL-23 receptor on the surface of HEK-Blue IL-23 cells (UniProt Q5VWK5 24-629, limits assumed)
T1 sequence (looked up): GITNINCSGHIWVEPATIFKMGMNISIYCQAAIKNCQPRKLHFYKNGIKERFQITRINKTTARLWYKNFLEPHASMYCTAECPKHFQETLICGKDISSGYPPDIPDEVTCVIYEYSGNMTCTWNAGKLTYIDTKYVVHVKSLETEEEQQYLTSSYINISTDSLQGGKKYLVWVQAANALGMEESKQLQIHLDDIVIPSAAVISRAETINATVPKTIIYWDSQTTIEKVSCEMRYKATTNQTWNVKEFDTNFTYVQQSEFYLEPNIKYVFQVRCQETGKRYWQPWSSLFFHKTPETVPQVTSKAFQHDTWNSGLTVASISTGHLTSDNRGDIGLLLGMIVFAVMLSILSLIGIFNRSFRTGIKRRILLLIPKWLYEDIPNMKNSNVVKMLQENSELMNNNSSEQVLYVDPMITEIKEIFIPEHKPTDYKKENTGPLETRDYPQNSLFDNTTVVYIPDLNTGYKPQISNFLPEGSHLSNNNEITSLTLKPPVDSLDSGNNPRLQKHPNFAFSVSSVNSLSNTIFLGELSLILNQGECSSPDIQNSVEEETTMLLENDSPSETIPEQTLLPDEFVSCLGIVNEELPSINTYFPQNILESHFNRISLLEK


Legend:
[1] = test system: IL-23 induced STAT3 signaling; test: Inhibition of IL-23 induced STAT3 signaling in HEK-Blue IL-23 cells (SEAP reporter); format: cell-based; conditions: human IL-23 0.25 ng/ml, read-out: Inhibition of IL-23 induced pSTAT3 (IC50 nM)
From the text: HEK-Blue™ IL-23 cells (Invivogen) are designed for the detection of bioactive human (hIL-23) and murine IL-23 (mIL-23) by monitoring the activation of the STAT3 pathway. Binding of IL-23 to its receptor on the surface of HEK-Blue™ IL-23 cells triggers a signaling cascade leading to the activation of STAT3 and the subsequent production of secreted embryonic alkaline phosphatase (SEAP). This can be readily assessed using QUANTI-Blue™ Solution, a SEAP detection reagent.
HEK-Blue™ IL-23 cells were cultured as described by Invivogen.
On the first day of assay 10 μL of the HEK-Blue IL-23 cell suspension (final concentration: 10,000 cells/well) and 10 μl of serially diluted compound solutions were dispensed into a 384-well assay plate. After pre-incubation of the reaction mixtures at 37° C./5% CO2/95% humidity for 60 minutes, 10 μl of the humanIL-23 cytokine (final concentration: 0.25 ng/ml) was added to each well for the STAT3 signaling activation. The plate was incubated overnight at 37° C./5% CO2/95% humidity.
On the second day 20 μl per well of Quanti-Blue detection solution (prepared according to the manufacture instruction) was dispensed into a new 384-well plate and followed by the transfer of 5 μl supernatant of the overnight incubated cell/sample mixtures. After incubation of 45 min at room temperature signals were measured with PHERAstar (BMG) at OD 620-655 nm.
Dose response data were fitted with XLfit.

[2] = target: T1, IL-23 receptor on the surface of …; test: cell-based or functional assay

IC50 [1] | Inhibition of IL-23 induced pSTAT3 (IC50 nM) [2] | Molecule
8110 nM | – | COc1ccc(C[C@@H]2NC(=O)[C@H](CCCNC(=N)N)NC(=O)[C@H](CCC(N)=O)NC(=O)[C@H](Cc3c[nH]c4ccccc34)NC(=O)[C@H]([C@@H](C)O)NC(=O)[C@H](CC(N)=O)NC(=O)[C@H](NC(C)=O)CCCCNC(=O)C[C@@H](C(=O)N[C@@H](CC(N)=O)C(N)=O)NC(=O)C(C)(C)NC(=O)[C@H](Cc3ccc4ccccc4c3)NC2=O)cc1 [compound 26] (Ac-[dK]NTWQRY(Me)[2Nal][Aib]DN-NH2; lactam 1-10)
5650 nM | – | COc1ccc(C[C@@H]2NC(=O)[C@H](CCCNC(=N)N)NC(=O)[C@H](CCC(N)=O)NC(=O)[C@H](Cc3c[nH]c4ccccc34)NC(=O)[C@H]([C@@H](C)O)NC(=O)[C@H](CC(N)=O)NC(=O)[C@H](NC(C)=O)CCCCNC(=O)C[C@@H](C(=O)N[C@@H](CC(N)=O)C(=O)N[C@@H](CC(N)=O)C(N)=O)NC(=O)[C@H](CCCCNC(C)=O)NC(=O)[C@H](Cc3cccc4ccccc34)NC2=O)cc1 [compound 17] (Ac-[dK]NTWQRY(Me)[1Nal]K(Ac)DNN-NH2; lactam 1-10)
9600 nM | – | COc1ccc(C[C@@H]2NC(=O)[C@H](CCCNC(=N)N)NC(=O)[C@H](CCC(N)=O)NC(=O)[C@H](Cc3c[nH]c4ccccc34)NC(=O)[C@H]([C@@H](C)O)NC(=O)[C@H](CC(N)=O)NC(=O)[C@H](NC(C)=O)CCCCNC(=O)C[C@@H](C(=O)N[C@@H](CC(N)=O)C(=O)N[C@@H](CC(N)=O)C(N)=O)NC(=O)[C@H](CCC(N)=O)NC(=O)[C@H](Cc3cccc4ccccc34)NC2=O)cc1 [compound 19] (Ac-[dK]NTWQRY(Me)[1Nal]QDNN-NH2; lactam 1-10)
8010 nM | – | COc1ccc(C[C@@H]2NC(=O)[C@H](CCCNC(=N)N)NC(=O)[C@H](CCC(N)=O)NC(=O)[C@H](Cc3c[nH]c4ccccc34)NC(=O)[C@H]([C@@H](C)O)NC(=O)[C@H](CC(N)=O)NC(=O)[C@H](NC(C)=O)CCCCNC(=O)CC[C@@H](C(=O)N[C@@H](CC(N)=O)C(=O)N[C@@H](CC(N)=O)C(N)=O)NC(=O)C(C)(C)NC(=O)[C@H](Cc3cccc4ccccc34)NC2=O)cc1 [compound 16] (Ac-[dK]NTWQRY(Me)[1Nal][Aib]ENN-NH2; lactam 1-10)
1570 nM | – | CC(=O)N[C@H]1CCCNC(=O)CC[C@@H](C(=O)N[C@@H](CC(N)=O)C(=O)N[C@@H](CC(N)=O)C(N)=O)NC(=O)C(C)(C)NC(=O)[C@H](Cc2ccc3ccccc3c2)NC(=O)[C@H](Cc2ccc(OCCN)cc2)NC(=O)[C@H](CCCNC(=N)N)NC(=O)[C@H](CCC(N)=O)NC(=O)[C@H](Cc2c[nH]c3ccccc23)NC(=O)[C@H]([C@@H](C)O)NC(=O)[C@H](CC(N)=O)NC1=O [compound 38] (Ac-[Orn]NTWQR[AEF][2Nal][Aib]ENN-NH2; lactam 1-10)
– | 432 nM | Ac-[dK]NTWQR[Tyr(Me)][2Nal][Aib]ENN-NH2 (lactam 1-10; SMILES COc1ccc(C[C@@H]2NC(=O)[C@H](CCCNC(=N)N)NC(=O)[C@H](CCC(N)=O)NC(=O)[C@H](Cc3c[nH]c4ccccc34)NC(=O)[C@H]([C@@H](C)O)NC(=O)[C@H](CC(N)=O)NC(=O)[C@H](NC(C)=O)CCCCNC(=O)CC[C@@H](C(=O)N[C@@H](CC(N)=O)C(=O)N[C@@H](CC(N)=O)C(N)=O)NC(=O)C(C)(C)NC(=O)[C@H](Cc3ccc4ccccc4c3)NC2=O)cc1) [peptide compound SEQ ID NO: 5]
– | 366 nM | Ac-DNTWQR[Tyr(Me)][2Nal][Aib][Orn]NN-NH2 (lactam 1-10; SMILES COc1ccc(C[C@@H]2NC(=O)[C@H](CCCNC(=N)N)NC(=O)[C@H](CCC(N)=O)NC(=O)[C@H](Cc3c[nH]c4ccccc34)NC(=O)[C@H]([C@@H](C)O)NC(=O)[C@H](CC(N)=O)NC(=O)[C@@H](NC(C)=O)CC(=O)NCCC[C@@H](C(=O)N[C@@H](CC(N)=O)C(=O)N[C@@H](CC(N)=O)C(N)=O)NC(=O)C(C)(C)NC(=O)[C@H](Cc3ccc4ccccc4c3)NC2=O)cc1) [peptide compound SEQ ID NO: 6]

Continued, molecule first:

Molecule | IC50 [1] | Inhibition of IL-23 induced pSTAT3 (IC50 nM) [2]
COc1ccc(C[C@@H]2NC(=O)[C@H](CCCNC(=N)N)NC(=O)[C@H](CCC(N)=O)NC(=O)[C@H](Cc3c[nH]c4ccccc34)NC(=O)[C@H]([C@@H](C)O)NC(=O)[C@H](CC(N)=O)NC(=O)[C@H](NC(C)=O)CCCCNC(=O)C[C@@H](C(=O)N[C@@H](CC(N)=O)C(=O)N[C@@H](CC(N)=O)C(N)=O)NC(=O)[C@H](CCC(N)=O)NC(=O)[C@H](Cc3ccc4ccccc4c3)NC2=O)cc1 [compound 30] (Ac-[dK]NTWQRY(Me)[2Nal]QDNN-NH2; lactam 1-10) | 6050 nM | –
COc1ccc(C[C@@H]2NC(=O)[C@H](CCCNC(=N)N)NC(=O)[C@H](CCC(N)=O)NC(=O)[C@H](Cc3c[nH]c4ccccc34)NC(=O)[C@H]([C@@H](C)O)NC(=O)[C@H](CC(N)=O)NC(=O)[C@H](NC(C)=O)CCCCNC(=O)C[C@@H](C(=O)N[C@@H](CC(N)=O)C(=O)N[C@@H](CC(N)=O)C(N)=O)NC(=O)[C@H](CCCCNC(C)=O)NC(=O)[C@H](Cc3ccc4ccccc4c3)NC2=O)cc1 [compound 28] (Ac-[dK]NTWQRY(Me)[2Nal]K(Ac)DNN-NH2; lactam 1-10) | 2210 nM | –
CC(=O)N[C@@H]1CCCCNC(=O)C[C@@H](C(=O)N[C@@H](CC(N)=O)C(=O)N[C@@H](CC(N)=O)C(N)=O)NC(=O)C(C)(C)NC(=O)[C@H](Cc2cccc3ccccc23)NC(=O)[C@H](Cc2ccc(O)cc2)NC(=O)[C@H](CCCNC(=N)N)NC(=O)[C@H](CCC(N)=O)NC(=O)[C@H](Cc2c[nH]c3ccccc23)NC(=O)[C@H]([C@@H](C)O)NC(=O)[C@H](CC(N)=O)NC1=O [compound 14] (Ac-[dK]NTWQRY[1Nal][Aib]DNN-NH2; lactam 1-10) | 1380 nM | –
Ac-KNTWQR[Tyr(Me)][2Nal][Thp]DNN-NH2 (lactam 1-10; SMILES COc1ccc(C[C@@H]2NC(=O)[C@H](CCCNC(=N)N)NC(=O)[C@H](CCC(N)=O)NC(=O)[C@H](Cc3c[nH]c4ccccc34)NC(=O)[C@H]([C@@H](C)O)NC(=O)[C@H](CC(N)=O)NC(=O)[C@@H](NC(C)=O)CCCCNC(=O)C[C@@H](C(=O)N[C@@H](CC(N)=O)C(=O)N[C@@H](CC(N)=O)C(N)=O)NC(=O)C3(CCOCC3)NC(=O)[C@H](Cc3ccc4ccccc4c3)NC2=O)cc1) [peptide compound SEQ ID NO: 41] | – | 221 nM
Ac-[dK]NTWQA[Tyr(Me)][1Nal][Aib]DNN-NH2 (lactam 1-10; SMILES COc1ccc(C[C@@H]2NC(=O)[C@H](C)NC(=O)[C@H](CCC(N)=O)NC(=O)[C@H](Cc3c[nH]c4ccccc34)NC(=O)[C@H]([C@@H](C)O)NC(=O)[C@H](CC(N)=O)NC(=O)[C@H](NC(C)=O)CCCCNC(=O)C[C@@H](C(=O)N[C@@H](CC(N)=O)C(=O)N[C@@H](CC(N)=O)C(N)=O)NC(=O)C(C)(C)NC(=O)[C@H](Cc3cccc4ccccc34)NC2=O)cc1) [peptide compound SEQ ID NO: 8] | – | 943 nM
Ac-[dK]NTWQL[Tyr(Me)][1Nal][Aib]DNN-NH2 (lactam 1-10; SMILES COc1ccc(C[C@@H]2NC(=O)[C@H](CC(C)C)NC(=O)[C@H](CCC(N)=O)NC(=O)[C@H](Cc3c[nH]c4ccccc34)NC(=O)[C@H]([C@@H](C)O)NC(=O)[C@H](CC(N)=O)NC(=O)[C@H](NC(C)=O)CCCCNC(=O)C[C@@H](C(=O)N[C@@H](CC(N)=O)C(=O)N[C@@H](CC(N)=O)C(N)=O)NC(=O)C(C)(C)NC(=O)[C@H](Cc3cccc4ccccc34)NC2=O)cc1) [peptide compound SEQ ID NO: 7] | – | 850 nM
